The values below come from patent US6245817A, “NPY5 receptor antagonists and methods for using same” (Bayer Corporation, priority 1999, dated 2001).

Where a name gives a salt, the structure may show the parent alone. Bounds are passed on as bounds.

For one test, the target named is T1, Human NPY5 Receptor (Homo sapiens, UniProt Q15761).
T1 sequence (Q15761 1-445): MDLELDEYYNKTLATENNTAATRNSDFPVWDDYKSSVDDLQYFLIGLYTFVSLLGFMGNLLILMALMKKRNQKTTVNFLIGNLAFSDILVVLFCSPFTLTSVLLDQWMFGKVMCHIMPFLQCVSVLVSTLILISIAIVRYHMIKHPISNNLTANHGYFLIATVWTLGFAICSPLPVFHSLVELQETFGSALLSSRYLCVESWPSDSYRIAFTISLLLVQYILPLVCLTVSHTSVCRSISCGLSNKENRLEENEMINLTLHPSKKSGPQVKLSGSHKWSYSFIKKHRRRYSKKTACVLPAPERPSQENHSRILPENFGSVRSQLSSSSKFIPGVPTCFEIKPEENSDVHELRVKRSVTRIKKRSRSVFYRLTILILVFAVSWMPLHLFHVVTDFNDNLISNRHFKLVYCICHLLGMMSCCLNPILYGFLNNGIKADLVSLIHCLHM
The experiment in a line: Human NPY5 Receptor Binding Assay. The following applies: [125I]PYY; read-out: hNPY5 IC50.

Another test addresses T2, Human NPY2 receptor (Homo sapiens, UniProt P49146).
T2 sequence (P49146 1-381): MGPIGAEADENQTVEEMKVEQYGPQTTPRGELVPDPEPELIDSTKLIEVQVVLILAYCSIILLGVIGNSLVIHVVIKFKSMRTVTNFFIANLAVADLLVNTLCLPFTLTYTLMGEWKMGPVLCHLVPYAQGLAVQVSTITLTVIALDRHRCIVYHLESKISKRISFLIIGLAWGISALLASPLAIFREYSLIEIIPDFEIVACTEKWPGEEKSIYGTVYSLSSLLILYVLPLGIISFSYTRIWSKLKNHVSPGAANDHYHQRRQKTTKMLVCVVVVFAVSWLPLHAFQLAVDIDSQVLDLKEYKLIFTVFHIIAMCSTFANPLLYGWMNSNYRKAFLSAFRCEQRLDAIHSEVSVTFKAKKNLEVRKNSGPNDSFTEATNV
The experiment in a line: Human NPY2 Receptor Binding Assay. To be noted: [125I]PYY; read-out: hPPY2 IC50.

Test [1] has as its target T3, Rat NPY5 Receptor (Rattus norvegicus, UniProt Q63634).
T3 sequence (Q63634 1-445): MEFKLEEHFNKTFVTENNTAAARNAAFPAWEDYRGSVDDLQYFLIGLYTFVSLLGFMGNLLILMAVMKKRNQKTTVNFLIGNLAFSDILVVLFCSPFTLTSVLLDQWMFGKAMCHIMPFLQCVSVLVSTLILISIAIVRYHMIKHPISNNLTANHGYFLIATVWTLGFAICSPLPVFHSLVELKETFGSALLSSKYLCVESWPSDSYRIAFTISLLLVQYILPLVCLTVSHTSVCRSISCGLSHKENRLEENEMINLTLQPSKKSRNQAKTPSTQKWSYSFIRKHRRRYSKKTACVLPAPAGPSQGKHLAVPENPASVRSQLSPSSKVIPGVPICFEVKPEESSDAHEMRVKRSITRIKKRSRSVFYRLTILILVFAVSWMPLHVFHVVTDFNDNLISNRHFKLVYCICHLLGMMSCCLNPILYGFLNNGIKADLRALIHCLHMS
The experiment in a line: Rat NYP5 Cyclase Assay (In Vitro Functional Assay). It counts as cell-based. The following applies: 20 min, percentage of forskolin-stimulated adenylate cyclase, read-out: rNPY5 % FSAC (10 μM). As for the experimental part:
D. Rat NYP5 Cyclase Assay (In Vitro Functional Assay)
Cells stably expressing the rat NPY5 receptor are resuspended in serum-free DMEM containing 10 mM HEPES (pH 7.4) and 1 mM isobutylmethylxanthine (IBMX). 1 μM forskolin and drug dilution are then added to the cells. After a 20 minute incubation of the samples at 37° C., the assay is stopped by placing the samples in boiling water for 3 minutes. The cAMP produced in each sample is quantitated with a radioimmunoassay kit (NEN Dupont). Data are expressed as a percentage of forskolin-stimulated adenylate cyclase.

A further test has as its target T4, Human NPY1 Receptor (Homo sapiens, UniProt P25929).
T4 sequence (P25929 1-384): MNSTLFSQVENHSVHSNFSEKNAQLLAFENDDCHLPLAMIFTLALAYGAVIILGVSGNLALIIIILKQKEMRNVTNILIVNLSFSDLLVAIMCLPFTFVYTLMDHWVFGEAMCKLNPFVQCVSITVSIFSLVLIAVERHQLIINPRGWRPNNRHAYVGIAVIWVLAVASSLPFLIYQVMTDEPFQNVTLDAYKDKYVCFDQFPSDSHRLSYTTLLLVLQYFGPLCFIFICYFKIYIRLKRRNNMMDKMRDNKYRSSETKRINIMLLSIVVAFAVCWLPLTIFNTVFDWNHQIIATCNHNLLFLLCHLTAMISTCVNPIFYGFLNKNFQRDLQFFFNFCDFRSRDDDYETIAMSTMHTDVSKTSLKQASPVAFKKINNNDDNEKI
Description: Human NPY1 Receptor Binding Assay. To be noted: SK-N-MC cells, [125I]PYY; read-out: hNPY1 IC50.

Another test addresses Human NPY4/PP1 receptor (Homo sapiens, UniProt P50391). Description: Human NPY4/PP1 Receptor Binding Assay. The following applies: [125I]human PP; read-out: hNPY4 IC50.
The target in test [2] is T3, Rat NPY5 Receptor. Description: Rat NPY5 Receptor Binding Assay. To be noted: [125I]PYY; read-out: rNPY5 IC50.

Sequence of Human NPY4/PP1 receptor (P50391 whole entry): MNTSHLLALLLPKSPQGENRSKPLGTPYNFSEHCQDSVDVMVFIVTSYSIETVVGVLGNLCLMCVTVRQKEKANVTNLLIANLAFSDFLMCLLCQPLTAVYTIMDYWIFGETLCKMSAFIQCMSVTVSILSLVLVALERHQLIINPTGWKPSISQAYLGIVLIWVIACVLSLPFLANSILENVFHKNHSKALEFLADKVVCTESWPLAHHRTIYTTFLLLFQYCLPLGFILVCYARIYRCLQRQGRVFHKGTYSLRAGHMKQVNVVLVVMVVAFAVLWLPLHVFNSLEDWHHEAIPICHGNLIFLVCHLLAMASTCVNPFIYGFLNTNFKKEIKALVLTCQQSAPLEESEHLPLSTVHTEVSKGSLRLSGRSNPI

Regarding `Nc1nnc(SCC(=O)Nc2ccc(C3CCCCC3)cc2)s1` [Compound 51, 2-(-Amino-[1,3,4]thiadiazol-2-ylsulfanyl)-N-4-cydohexyl-phenyl-cetamide], the figures for the IC50 at Human NPY5 Receptor and at Human NPY2 receptor were 0.22 µM and greater than 5 µM, respectively. Moreover, the activity at 10 µM at Rat NPY5 Receptor [1] was determined as 105%.
Turning to `Cn1ccnc1SCC(=O)Nc1ccc(C2CCCCC2)cc1` [Compound 3, N-(4-Cyclohexyl-phenyl)-2-(1-methyl-1H-imidazol-2-ylsulfanyl)-acetamide Hydrochloride], the IC50 on Human NPY1 Receptor is greater than 5 µM; at Human NPY5 Receptor it was 0.16 µM; on Human NPY2 receptor it was greater than 5 µM; at Human NPY4/PP1 receptor, greater than 5 µM; on Rat NPY5 Receptor [2] it was 0.12 µM. Moreover, the activity at 10 µM at Rat NPY5 Receptor [1] came to 103%.
Turning to `CCC(C)c1ccc(NC(=O)CSc2nccn2C)cc1` (centres unmarked) [Compound 148, N-(4-sec-Butyl-phenyl)-2-(1-methyl-1H-imidazo1-2-ylsulfanyl)-acetamide, reference compound], the half-inhibitory concentration (IC50) at Human NPY1 Receptor is greater than 5 µM; at Human NPY5 Receptor, 4 µM; at Human NPY2 receptor it was greater than 5 µM; on Human NPY4/PP1 receptor, greater than 5 µM; at Rat NPY5 Receptor [2], 2.4 µM.
Take `Cn1nnnc1SCC(=O)Nc1ccc(C2CCCCC2)cc1` [Compound 8, N-(4-Cyclohexyl-phenyl)-2-(1-methyl-1H-tetrazol-5-ylsulfanyl)-acetamide]: the IC50 on Human NPY1 Receptor is greater than 5 µM; on Human NPY5 Receptor, 0.16 µM; at Human NPY2 receptor, greater than 5 µM; at Human NPY4/PP1 receptor it was greater than 5 µM; on Rat NPY5 Receptor [2], 0.029 µM. For the same compound, the activity at 10 µM on Rat NPY5 Receptor [1] came out at 99%.

A word on the IC50: it is the concentration at which inhibition is half-maximal.
